Patent publication US6071927A, “Spiro-piperidine derivatives and their use as therapeutic agents” (Merck Sharp & Dohme Ltd., priority 1996, dated 2000)

Test system: NK1 receptor
Assay: NK1 receptor test by the methods of WO 93/01165, pages 36 to 39
Type: binding, human
Conditions: 3(R) compound compared with its 3(S) epimer, Example 124
Procedure: The exemplified compounds of this invention were tested by the methods set out at pages 36 to 39 of International Patent Specification No. WO 93/01165.

## (3R,5R,6S)-3-[2-(2,2,-Difluoroethoxy)-5-(difluoromethoxy)phenyl]-6-phenyl-1-oxa-7-(tert-butoxycarbonyl)aza-spiro[4,5]decane [Example 214]
  potency relative to epimer: more potent
